Several values for one entry are separate records, joined by “and”; a condition that tells them apart may be missing. Identical values can stand only once.
System: collagen-induced arthritis
Assay: Collagen-induced arthritis (CIA) model in rats: body weight, paw volume, clinical scores, clinical observations; as to Average detailed clinical score, left hind limb: key of the grades not given here; as to Average detailed clinical score, right hind limb: key of the grades not given here; as to Detailed Clinical Scores: left forelimb: key of the grades not given here; as to Detailed Clinical Scores: left hind limb: key of the grades not given here; as to Detailed Clinical Scores: right forelimb: key of the grades not given here; as to Detailed Clinical Scores: right hind limb: key of the grades not given here; as to Detailed Clinical Scores: score: key of the grades not given here; as to Mean overall clinical score ± SD: key of the grades not given here; as to overall clinical score: key of the grades not given here
Settings: for Average detailed clinical score, left hind limb / Average detailed clinical score, right forelimb / Average detailed clinical score, right hind limb / Average detailed clinical score, score / Mean overall clinical score ± SD / Overall clinical score / Average detailed clinical score, left forelimb / Detailed Clinical Scores: left forelimb / Detailed Clinical Scores: left hind limb / Detailed Clinical Scores: right forelimb / Detailed Clinical Scores: right hind limb / Detailed Clinical Scores: score: CIA rats; for Overall clinical score: individual animals #1-8; for Mean animal paw volume ± SD: group mean; for Animal paw volume percent change: individual animals; for Detailed Clinical Scores: left forelimb / Detailed Clinical Scores: left hind limb / Detailed Clinical Scores: right forelimb / Detailed Clinical Scores: right hind limb / Detailed Clinical Scores: score: individual animals ID 1-8

CNC(=O)c1[nH]c(C(=O)NC2CCC2)cc1O[C@@H](C)c1ccccc1 (stereo in doubt) [Example 101, N^5-cyclobutyl-N^2-methyl-3-(1-phenylethoxy)-1H-pyrrole-2,5-dicarboxamide]
Average detailed clinical score, left hind limb (Day 15, 3 mg/kg): 2.00 | Average detailed clinical score, right forelimb (Day 15, 3 mg/kg): 0.25 | Average detailed clinical score, right hind limb (Day 15, 3 mg/kg): 2.13 | Average detailed clinical score, score (Day 15, 3 mg/kg): 4.38 | Mean overall clinical score ± SD (Day 15, 3 mg/kg): 4 ± 2 | Overall clinical score (Day 15, 3 mg/kg): 2 and 3 (3×) and 6 (2×) and 8 and 4 | Average detailed clinical score, left forelimb (Day 15, 10 mg/kg): 0.00 | Average detailed clinical score, left hind limb (Day 15, 10 mg/kg): 1.75 | Average detailed clinical score, right forelimb (Day 15, 10 mg/kg): 0.00 | Average detailed clinical score, right hind limb (Day 15, 10 mg/kg): 1.50 | Average detailed clinical score, score (Day 15, 10 mg/kg): 3.25 | Mean overall clinical score ± SD (Day 15, 10 mg/kg): 3 ± 3 | Overall clinical score (Day 15, 10 mg/kg): 5 and 4 and 7 | Average detailed clinical score, left forelimb (Day 15, 30 mg/kg): 0.00 | Average detailed clinical score, left hind limb (Day 15, 30 mg/kg): 0.38 | Average detailed clinical score, right forelimb (Day 15, 30 mg/kg): 0.00 | Average detailed clinical score, right hind limb (Day 15, 30 mg/kg): 0.50 | Average detailed clinical score, score (Day 15, 30 mg/kg): 0.88 | Mean overall clinical score ± SD (Day 15, 30 mg/kg): 1 ± 1 | Mean animal paw volume ± SD (Day 18, L paw, 3 mg/kg): 2.49 mL | Animal paw volume percent change (Day 18, L paw, 3 mg/kg): 83.52% and 101.14% and 98.86% and 81.04% and 106.51% and 80.59% and 82.40% | Mean animal paw volume ± SD (Day 18, L paw, 10 mg/kg): 2.08 mL | Animal paw volume percent change (Day 18, L paw, 10 mg/kg): 72.92% and 61.90% and 97.28% and 109.73% and 15.71% and 76.54% | Mean animal paw volume ± SD (Day 18, L paw, 30 mg/kg): 1.70 mL | Mean animal paw volume ± SD (Day 18, R paw, 3 mg/kg): 2.53 mL | Animal paw volume percent change (Day 18, R paw, 3 mg/kg): 67.68% and 91.39% and 100.38% and 76.49% and 106.51% and 89.22% and 86.89% | Mean animal paw volume ± SD (Day 18, R paw, 10 mg/kg): 2.02 mL | Animal paw volume percent change (Day 18, R paw, 10 mg/kg): 58.36% and 65.34% and 94.21% and 111.20% and 22.39% and 46.36% | Mean animal paw volume ± SD (Day 18, R paw, 30 mg/kg): 1.63 mL | Detailed Clinical Scores: left forelimb (Day 18, 3 mg/kg): 0 | Detailed Clinical Scores: left hind limb (Day 18, 3 mg/kg): 3 and 4 | Detailed Clinical Scores: right forelimb (Day 18, 3 mg/kg): 0 | Detailed Clinical Scores: right hind limb (Day 18, 3 mg/kg): 4 and 3 | Detailed Clinical Scores: score (Day 18, 3 mg/kg): 7 | Average detailed clinical score, left forelimb (Day 18, 3 mg/kg): 0.50 | Average detailed clinical score, left hind limb (Day 18, 3 mg/kg): 3.88 | Average detailed clinical score, right forelimb (Day 18, 3 mg/kg): 0.50 | Average detailed clinical score, right hind limb (Day 18, 3 mg/kg): 3.88 | Average detailed clinical score, score (Day 18, 3 mg/kg): 8.75 | Mean overall clinical score ± SD (Day 18, 3 mg/kg): 9 ± 2 | Overall clinical score (Day 18, 3 mg/kg): 7 (2×) and 8 (4×) and 12 (2×) | Average detailed clinical score, left forelimb (Day 18, 10 mg/kg): 0.00 | Average detailed clinical score, left hind limb (Day 18, 10 mg/kg): 2.50 | Average detailed clinical score, right forelimb (Day 18, 10 mg/kg): 0.88 | Average detailed clinical score, right hind limb (Day 18, 10 mg/kg): 2.25 | Average detailed clinical score, score (Day 18, 10 mg/kg): 5.63 | Mean overall clinical score ± SD (Day 18, 10 mg/kg): 6 ± 4 | Overall clinical score (Day 18, 10 mg/kg): 7 and 6 and 12 | Average detailed clinical score, left forelimb (Day 18, 30 mg/kg): 0.00 | Average detailed clinical score, left hind limb (Day 18, 30 mg/kg): 1.13 | Average detailed clinical score, right forelimb (Day 18, 30 mg/kg): 0.00 | Average detailed clinical score, right hind limb (Day 18, 30 mg/kg): 0.88 | Average detailed clinical score, score (Day 18, 30 mg/kg): 2.00 | Mean overall clinical score ± SD (Day 18, 30 mg/kg): 2 ± 2 | Mean animal paw volume ± SD (Day 19, L paw, 3 mg/kg): 2.64 mL | Animal paw volume percent change (Day 19, L paw, 3 mg/kg): 91.95% and 116.35% and 108.75% and 85.50% and 107.28% and 90.11% and 81.65% | Mean animal paw volume ± SD (Day 19, L paw, 10 mg/kg): 2.07 mL | Animal paw volume percent change (Day 19, L paw, 10 mg/kg): 71.48% and 61.51% and 93.39% and 105.45% and 13.03% | Mean animal paw volume ± SD (Day 19, L paw, 30 mg/kg): 1.76 mL | Mean animal paw volume ± SD (Day 19, R paw, 3 mg/kg): 2.60 mL | Animal paw volume percent change (Day 19, R paw, 3 mg/kg): 67.68% and 117.60% and 98.86% and 76.49% and 104.98% and 107.81% and 86.14% | Mean animal paw volume ± SD (Day 19, R paw, 10 mg/kg): 2.02 mL | Animal paw volume percent change (Day 19, R paw, 10 mg/kg): 67.62% and 63.35% and 90.35% and 108.88% and 21.62% | Mean animal paw volume ± SD (Day 19, R paw, 30 mg/kg): 1.74 mL | Detailed Clinical Scores: left forelimb (Day 19, 3 mg/kg): 1 and 0 | Detailed Clinical Scores: left hind limb (Day 19, 3 mg/kg): 4 | Detailed Clinical Scores: right forelimb (Day 19, 3 mg/kg): 0 | Detailed Clinical Scores: right hind limb (Day 19, 3 mg/kg): 4 and 3 | Detailed Clinical Scores: score (Day 19, 3 mg/kg): 9 and 7 | Average detailed clinical score, left forelimb (Day 19, 3 mg/kg): 1.13 | Average detailed clinical score, left hind limb (Day 19, 3 mg/kg): 4.00 | Average detailed clinical score, right forelimb (Day 19, 3 mg/kg): 1.00 | Average detailed clinical score, right hind limb (Day 19, 3 mg/kg): 3.75 | Average detailed clinical score, score (Day 19, 3 mg/kg): 9.88 | Mean overall clinical score ± SD (Day 19, 3 mg/kg): 10 ± 3 | Overall clinical score (Day 19, 3 mg/kg): 9 and 7 (2×) and 8 (2×) and 16 and 12 (2×) | Average detailed clinical score, left forelimb (Day 19, 10 mg/kg): 0.00 | Average detailed clinical score, left hind limb (Day 19, 10 mg/kg): 2.38 | Average detailed clinical score, right forelimb (Day 19, 10 mg/kg): 1.13 | Average detailed clinical score, right hind limb (Day 19, 10 mg/kg): 2.88 | Average detailed clinical score, score (Day 19, 10 mg/kg): 6.38 | Mean overall clinical score ± SD (Day 19, 10 mg/kg): 6 ± 4 | Overall clinical score (Day 19, 10 mg/kg): 7 and 6 and 12 | Average detailed clinical score, left forelimb (Day 19, 30 mg/kg): 0.00 | Average detailed clinical score, left hind limb (Day 19, 30 mg/kg): 1.63 | Average detailed clinical score, right forelimb (Day 19, 30 mg/kg): 0.25 | Average detailed clinical score, right hind limb (Day 19, 30 mg/kg): 1.75 | Average detailed clinical score, score (Day 19, 30 mg/kg): 3.63 | Mean overall clinical score ± SD (Day 19, 30 mg/kg): 4 ± 3 | Mean animal paw volume ± SD (Day 21, L paw, 3 mg/kg): 2.67 mL | Animal paw volume percent change (Day 21, L paw, 3 mg/kg): 90.42% and 128.52% and 109.51% and 86.25% and 104.98% and 93.04% and 80.15% | Mean animal paw volume ± SD (Day 21, L paw, 10 mg/kg): 2.09 mL | Animal paw volume percent change (Day 21, L paw, 10 mg/kg): 71.48% and 60.71% and 92.61% and 105.06% and 13.03% | Mean animal paw volume ± SD (Day 21, L paw, 30 mg/kg): 1.82 mL | Mean animal paw volume ± SD (Day 21, R paw, 3 mg/kg): 2.59 mL | Animal paw volume percent change (Day 21, R paw, 3 mg/kg): 69.20% and 117.60% and 97.35% and 74.25% and 106.13% and 105.58% and 84.64% | Mean animal paw volume ± SD (Day 21, R paw, 10 mg/kg): 2.08 mL | Animal paw volume percent change (Day 21, R paw, 10 mg/kg): 66.90% and 62.15% and 89.58% and 106.95% and 21.62% | Mean animal paw volume ± SD (Day 21, R paw, 30 mg/kg): 1.79 mL | Average detailed clinical score, left forelimb (Day 21, 3 mg/kg): 1.00 | Average detailed clinical score, left hind limb (Day 21, 3 mg/kg): 4.00 | Average detailed clinical score, right forelimb (Day 21, 3 mg/kg): 1.00 | Average detailed clinical score, right hind limb (Day 21, 3 mg/kg): 3.75 | Average detailed clinical score, score (Day 21, 3 mg/kg): 9.75 | Mean overall clinical score ± SD (Day 21, 3 mg/kg): 10 ± 3 | Overall clinical score (Day 21, 3 mg/kg): 9 and 7 (2×) and 8 (2×) and 14 and 13 and 12 | Average detailed clinical score, left forelimb (Day 21, 10 mg/kg): 0.00 | Average detailed clinical score, left hind limb (Day 21, 10 mg/kg): 2.50 | Average detailed clinical score, right forelimb (Day 21, 10 mg/kg): 1.25 | Average detailed clinical score, right hind limb (Day 21, 10 mg/kg): 2.75 | Average detailed clinical score, score (Day 21, 10 mg/kg): 6.50 | Mean overall clinical score ± SD (Day 21, 10 mg/kg): 7 ± 4 | Overall clinical score (Day 21, 10 mg/kg): 7 and 6 and 12 (2×) | Average detailed clinical score, left forelimb (Day 21, 30 mg/kg): 0.00 | Average detailed clinical score, left hind limb (Day 21, 30 mg/kg): 1.88 | Average detailed clinical score, right forelimb (Day 21, 30 mg/kg): 0.13 | Average detailed clinical score, right hind limb (Day 21, 30 mg/kg): 1.63 | Average detailed clinical score, score (Day 21, 30 mg/kg): 3.63 | Mean overall clinical score ± SD (Day 21, 30 mg/kg): 4 ± 3
